# Where two headings read alike, the source gives them in different places.
# Tests used:
# Assay in all cases: biochemical
# Assay type in all cases: biochemical
# [1] = target: T1, 382 unique human kinases (Homo sapiens, UniProt O43318); settings: kinase TAK1, compound 10 uM; for remaining activity at 10 µM: read-out: % Enzyme Activity (relative to DMSO controls)
# T1 construct: purchased Reaction Biology (HotSpot contract assay)
# T1 sequence (O43318 1-606): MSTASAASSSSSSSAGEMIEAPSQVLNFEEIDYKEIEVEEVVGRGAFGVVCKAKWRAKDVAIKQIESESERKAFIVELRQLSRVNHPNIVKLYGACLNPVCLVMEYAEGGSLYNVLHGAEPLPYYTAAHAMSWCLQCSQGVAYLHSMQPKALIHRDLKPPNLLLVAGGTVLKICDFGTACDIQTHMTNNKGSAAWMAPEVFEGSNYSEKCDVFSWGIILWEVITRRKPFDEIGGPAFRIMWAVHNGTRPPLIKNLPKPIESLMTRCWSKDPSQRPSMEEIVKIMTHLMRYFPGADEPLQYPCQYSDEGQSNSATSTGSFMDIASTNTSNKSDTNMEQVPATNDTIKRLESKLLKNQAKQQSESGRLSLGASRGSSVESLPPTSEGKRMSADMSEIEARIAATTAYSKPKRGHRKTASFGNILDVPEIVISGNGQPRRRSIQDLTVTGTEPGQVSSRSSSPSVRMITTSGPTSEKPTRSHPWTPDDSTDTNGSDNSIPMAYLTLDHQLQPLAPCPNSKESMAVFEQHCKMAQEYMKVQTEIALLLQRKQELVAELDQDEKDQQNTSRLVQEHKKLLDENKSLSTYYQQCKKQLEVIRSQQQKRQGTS
# [2] = target: T2, 382 unique human kinases (Homo sapiens, UniProt P10398); settings: compound at 10 uM, duplicate values
# T2 construct: purchased Reaction Biology (HotSpot contract assay)
# T2 sequence (P10398 1-606): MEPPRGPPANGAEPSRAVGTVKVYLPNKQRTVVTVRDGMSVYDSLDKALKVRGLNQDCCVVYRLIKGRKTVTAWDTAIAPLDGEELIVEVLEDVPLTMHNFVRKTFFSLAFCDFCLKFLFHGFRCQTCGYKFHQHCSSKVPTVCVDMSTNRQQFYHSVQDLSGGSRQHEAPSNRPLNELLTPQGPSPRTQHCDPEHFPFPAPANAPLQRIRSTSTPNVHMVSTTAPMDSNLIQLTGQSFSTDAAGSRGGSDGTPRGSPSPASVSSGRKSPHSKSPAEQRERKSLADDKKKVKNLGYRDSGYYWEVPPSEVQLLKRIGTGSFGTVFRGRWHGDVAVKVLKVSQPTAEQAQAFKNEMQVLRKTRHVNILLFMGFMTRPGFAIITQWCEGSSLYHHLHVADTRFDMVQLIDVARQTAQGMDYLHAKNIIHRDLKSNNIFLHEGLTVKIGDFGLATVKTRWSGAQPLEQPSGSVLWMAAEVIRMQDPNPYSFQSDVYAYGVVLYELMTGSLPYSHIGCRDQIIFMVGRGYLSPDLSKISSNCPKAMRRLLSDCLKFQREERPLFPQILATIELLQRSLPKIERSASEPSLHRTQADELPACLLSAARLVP
# [3] = target: T3, 382 unique human kinases (Homo sapiens, UniProt P22607); settings: FGFR3, 10 uM; for remaining activity at 10 µM: read-out: % Enzyme Activity (relative to DMSO controls)
# T3 construct: purchased Reaction Biology (HotSpot contract assay)
# [4] = target: T4, 382 unique human kinases (Homo sapiens, UniProt Q5VT25); settings: kinase MRCKa/CDC42BPA, compound 10 uM; for remaining activity at 10 µM: read-out: % Enzyme Activity (relative to DMSO controls)
# T4 construct: purchased Reaction Biology (HotSpot contract assay)
# [5] = target: T5, 382 unique human kinases (Homo sapiens, UniProt P00519, F317I); settings: ABL1 (F317I), [ATP] 5 µM, compound 10 uM; for remaining activity at 10 µM: read-out: % Enzyme Activity (relative to DMSO controls)
# T5 construct: purchased Reaction Biology (HotSpot contract assay)
# [6] = target: T6, 382 unique human kinases (Homo sapiens, UniProt P00519, M351T); settings: ABL1 (M351T), [ATP] 10 µM, compound 10 uM; for remaining activity at 10 µM: read-out: % Enzyme Activity (relative to DMSO controls)
# T6 construct: purchased Reaction Biology (HotSpot contract assay)
# [7] = target: T7, 382 unique human kinases (Homo sapiens, UniProt P16234, V561D); settings: PDGFRa (V561D), 10 uM; for remaining activity at 10 µM: read-out: % Enzyme Activity (relative to DMSO controls)
# T7 construct: purchased Reaction Biology (HotSpot contract assay)
# [8] = target: T8, 382 unique human kinases (Homo sapiens, UniProt P80192); settings: MLK1/MAP3K9, 10 uM; for remaining activity at 10 µM: read-out: % Enzyme Activity (relative to DMSO controls)
# T8 construct: purchased Reaction Biology (HotSpot contract assay)
# [9] = target: T9, 382 unique human kinases (Homo sapiens, UniProt Q16832); settings: DDR2, [ATP] 5 µM
# T9 construct: purchased Reaction Biology (HotSpot contract assay)
# T9 sequence (Q16832 22-855): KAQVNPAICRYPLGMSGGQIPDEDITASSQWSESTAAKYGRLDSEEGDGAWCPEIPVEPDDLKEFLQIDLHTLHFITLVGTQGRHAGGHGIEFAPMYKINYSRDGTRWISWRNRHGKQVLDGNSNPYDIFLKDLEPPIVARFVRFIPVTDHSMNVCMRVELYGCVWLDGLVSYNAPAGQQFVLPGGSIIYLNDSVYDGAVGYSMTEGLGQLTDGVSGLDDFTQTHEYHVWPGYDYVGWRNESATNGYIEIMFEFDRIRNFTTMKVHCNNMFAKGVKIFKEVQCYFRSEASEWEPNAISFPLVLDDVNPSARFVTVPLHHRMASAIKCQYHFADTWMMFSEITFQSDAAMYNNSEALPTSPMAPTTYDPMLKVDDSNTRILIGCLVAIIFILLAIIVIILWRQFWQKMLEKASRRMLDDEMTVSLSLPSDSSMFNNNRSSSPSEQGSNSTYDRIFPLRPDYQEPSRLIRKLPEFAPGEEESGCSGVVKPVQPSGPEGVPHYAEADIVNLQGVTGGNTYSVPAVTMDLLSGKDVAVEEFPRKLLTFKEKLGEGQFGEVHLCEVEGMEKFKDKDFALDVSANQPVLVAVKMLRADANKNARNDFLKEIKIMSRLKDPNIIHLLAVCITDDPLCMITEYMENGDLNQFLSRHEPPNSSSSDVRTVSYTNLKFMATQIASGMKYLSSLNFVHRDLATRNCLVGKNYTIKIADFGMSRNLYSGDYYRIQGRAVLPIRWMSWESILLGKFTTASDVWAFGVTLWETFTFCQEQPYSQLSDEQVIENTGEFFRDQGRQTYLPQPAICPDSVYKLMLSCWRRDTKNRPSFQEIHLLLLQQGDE
# [10] = compound 10 uM, read-out: % Enzyme Activity (relative to DMSO controls)
# T8 sequence (P80192 whole entry): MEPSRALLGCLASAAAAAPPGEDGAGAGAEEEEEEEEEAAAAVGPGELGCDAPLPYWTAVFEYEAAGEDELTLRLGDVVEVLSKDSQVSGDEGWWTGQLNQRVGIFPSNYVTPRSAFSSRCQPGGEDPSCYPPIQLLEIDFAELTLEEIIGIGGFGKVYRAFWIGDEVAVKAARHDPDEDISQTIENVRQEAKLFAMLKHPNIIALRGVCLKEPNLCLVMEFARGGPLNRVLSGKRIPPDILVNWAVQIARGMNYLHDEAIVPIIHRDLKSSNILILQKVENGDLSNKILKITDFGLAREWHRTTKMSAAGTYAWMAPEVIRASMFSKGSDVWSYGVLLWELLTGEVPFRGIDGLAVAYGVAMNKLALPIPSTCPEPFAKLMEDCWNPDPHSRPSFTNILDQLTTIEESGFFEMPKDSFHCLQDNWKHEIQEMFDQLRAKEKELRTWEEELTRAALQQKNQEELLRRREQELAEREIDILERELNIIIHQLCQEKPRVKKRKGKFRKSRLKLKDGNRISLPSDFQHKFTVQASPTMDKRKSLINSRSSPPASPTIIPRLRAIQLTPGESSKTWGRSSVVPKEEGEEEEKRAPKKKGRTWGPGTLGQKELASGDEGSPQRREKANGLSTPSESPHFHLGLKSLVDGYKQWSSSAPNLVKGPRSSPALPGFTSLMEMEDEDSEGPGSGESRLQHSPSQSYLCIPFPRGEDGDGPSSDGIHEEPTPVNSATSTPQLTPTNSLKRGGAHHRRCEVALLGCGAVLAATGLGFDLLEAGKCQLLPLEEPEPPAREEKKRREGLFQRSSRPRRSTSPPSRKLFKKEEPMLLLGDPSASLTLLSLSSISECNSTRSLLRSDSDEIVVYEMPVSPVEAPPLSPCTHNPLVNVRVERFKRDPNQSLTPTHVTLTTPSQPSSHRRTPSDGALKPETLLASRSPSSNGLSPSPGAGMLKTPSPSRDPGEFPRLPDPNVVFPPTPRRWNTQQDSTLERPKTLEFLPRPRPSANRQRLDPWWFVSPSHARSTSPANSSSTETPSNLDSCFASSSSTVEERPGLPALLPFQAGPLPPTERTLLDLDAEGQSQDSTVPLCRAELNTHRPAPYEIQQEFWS
# T4 sequence (Q5VT25 whole entry): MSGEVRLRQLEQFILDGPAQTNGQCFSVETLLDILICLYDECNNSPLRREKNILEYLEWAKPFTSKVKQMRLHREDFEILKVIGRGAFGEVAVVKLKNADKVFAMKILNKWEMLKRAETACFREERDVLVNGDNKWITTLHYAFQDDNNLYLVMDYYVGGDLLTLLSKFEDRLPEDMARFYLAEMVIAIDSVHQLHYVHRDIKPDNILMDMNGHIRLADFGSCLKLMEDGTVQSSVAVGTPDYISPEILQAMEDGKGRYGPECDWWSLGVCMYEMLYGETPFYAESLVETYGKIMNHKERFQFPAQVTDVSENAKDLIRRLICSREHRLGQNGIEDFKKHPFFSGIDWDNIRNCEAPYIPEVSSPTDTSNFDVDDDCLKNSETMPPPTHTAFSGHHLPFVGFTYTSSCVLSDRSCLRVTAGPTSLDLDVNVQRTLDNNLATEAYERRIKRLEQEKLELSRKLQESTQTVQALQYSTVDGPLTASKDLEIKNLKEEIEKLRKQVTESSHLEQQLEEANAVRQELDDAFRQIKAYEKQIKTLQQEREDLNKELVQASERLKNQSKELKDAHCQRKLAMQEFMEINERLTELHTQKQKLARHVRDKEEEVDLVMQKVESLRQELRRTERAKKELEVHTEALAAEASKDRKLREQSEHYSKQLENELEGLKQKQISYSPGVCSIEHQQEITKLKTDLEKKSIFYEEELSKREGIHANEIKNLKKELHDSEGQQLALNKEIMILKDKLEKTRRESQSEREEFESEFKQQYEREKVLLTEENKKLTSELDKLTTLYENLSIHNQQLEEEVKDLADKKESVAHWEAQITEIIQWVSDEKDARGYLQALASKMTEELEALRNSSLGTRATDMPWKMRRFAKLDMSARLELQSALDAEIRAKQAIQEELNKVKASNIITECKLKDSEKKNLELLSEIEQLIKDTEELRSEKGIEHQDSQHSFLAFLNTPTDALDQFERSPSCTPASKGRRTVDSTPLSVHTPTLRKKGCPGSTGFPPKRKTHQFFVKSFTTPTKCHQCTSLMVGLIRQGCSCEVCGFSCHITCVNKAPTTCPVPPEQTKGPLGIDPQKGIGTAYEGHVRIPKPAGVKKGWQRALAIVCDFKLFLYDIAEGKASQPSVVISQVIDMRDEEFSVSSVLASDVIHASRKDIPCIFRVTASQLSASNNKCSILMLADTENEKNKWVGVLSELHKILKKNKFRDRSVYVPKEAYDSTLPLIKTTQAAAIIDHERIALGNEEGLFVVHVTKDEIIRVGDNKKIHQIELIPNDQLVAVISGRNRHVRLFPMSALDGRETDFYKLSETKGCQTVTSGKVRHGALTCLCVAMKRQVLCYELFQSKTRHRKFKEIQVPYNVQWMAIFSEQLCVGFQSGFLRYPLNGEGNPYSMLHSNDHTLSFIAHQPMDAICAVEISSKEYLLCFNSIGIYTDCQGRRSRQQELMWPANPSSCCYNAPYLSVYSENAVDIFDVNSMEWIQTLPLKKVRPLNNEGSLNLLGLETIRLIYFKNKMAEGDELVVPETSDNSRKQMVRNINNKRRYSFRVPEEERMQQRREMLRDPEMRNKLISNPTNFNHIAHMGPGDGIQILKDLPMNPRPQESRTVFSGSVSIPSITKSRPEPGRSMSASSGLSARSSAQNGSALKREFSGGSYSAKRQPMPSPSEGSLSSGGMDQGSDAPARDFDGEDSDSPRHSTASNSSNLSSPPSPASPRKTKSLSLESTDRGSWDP
# T7 sequence (P16234 24-1089 V561D): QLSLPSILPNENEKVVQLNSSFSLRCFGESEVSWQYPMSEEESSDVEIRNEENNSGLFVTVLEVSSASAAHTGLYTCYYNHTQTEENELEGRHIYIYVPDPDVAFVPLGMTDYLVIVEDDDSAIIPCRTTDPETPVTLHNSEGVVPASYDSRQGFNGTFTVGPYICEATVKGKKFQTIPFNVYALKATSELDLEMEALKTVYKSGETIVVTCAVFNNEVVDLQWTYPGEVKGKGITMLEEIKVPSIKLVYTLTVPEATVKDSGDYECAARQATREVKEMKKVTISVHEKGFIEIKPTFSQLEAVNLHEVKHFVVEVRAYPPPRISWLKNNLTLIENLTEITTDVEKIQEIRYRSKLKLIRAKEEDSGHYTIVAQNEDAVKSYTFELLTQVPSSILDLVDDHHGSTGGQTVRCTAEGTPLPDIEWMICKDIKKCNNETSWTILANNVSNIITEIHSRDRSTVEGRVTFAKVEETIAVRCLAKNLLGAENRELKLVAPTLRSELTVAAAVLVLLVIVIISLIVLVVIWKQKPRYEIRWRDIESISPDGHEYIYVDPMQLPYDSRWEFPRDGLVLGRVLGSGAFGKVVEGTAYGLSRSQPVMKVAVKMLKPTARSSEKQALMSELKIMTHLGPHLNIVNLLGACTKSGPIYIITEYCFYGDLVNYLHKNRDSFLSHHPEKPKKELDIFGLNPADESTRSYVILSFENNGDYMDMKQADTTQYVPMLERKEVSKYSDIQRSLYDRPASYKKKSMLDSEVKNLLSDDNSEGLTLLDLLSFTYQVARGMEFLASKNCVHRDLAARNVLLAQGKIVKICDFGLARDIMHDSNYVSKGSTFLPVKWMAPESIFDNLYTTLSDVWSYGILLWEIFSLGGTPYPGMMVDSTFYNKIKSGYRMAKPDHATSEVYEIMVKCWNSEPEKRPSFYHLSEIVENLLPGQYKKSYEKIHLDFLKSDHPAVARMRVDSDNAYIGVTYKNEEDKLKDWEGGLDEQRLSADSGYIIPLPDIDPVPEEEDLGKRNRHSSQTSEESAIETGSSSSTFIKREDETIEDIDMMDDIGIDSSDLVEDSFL
# T3 sequence (P22607 23-806): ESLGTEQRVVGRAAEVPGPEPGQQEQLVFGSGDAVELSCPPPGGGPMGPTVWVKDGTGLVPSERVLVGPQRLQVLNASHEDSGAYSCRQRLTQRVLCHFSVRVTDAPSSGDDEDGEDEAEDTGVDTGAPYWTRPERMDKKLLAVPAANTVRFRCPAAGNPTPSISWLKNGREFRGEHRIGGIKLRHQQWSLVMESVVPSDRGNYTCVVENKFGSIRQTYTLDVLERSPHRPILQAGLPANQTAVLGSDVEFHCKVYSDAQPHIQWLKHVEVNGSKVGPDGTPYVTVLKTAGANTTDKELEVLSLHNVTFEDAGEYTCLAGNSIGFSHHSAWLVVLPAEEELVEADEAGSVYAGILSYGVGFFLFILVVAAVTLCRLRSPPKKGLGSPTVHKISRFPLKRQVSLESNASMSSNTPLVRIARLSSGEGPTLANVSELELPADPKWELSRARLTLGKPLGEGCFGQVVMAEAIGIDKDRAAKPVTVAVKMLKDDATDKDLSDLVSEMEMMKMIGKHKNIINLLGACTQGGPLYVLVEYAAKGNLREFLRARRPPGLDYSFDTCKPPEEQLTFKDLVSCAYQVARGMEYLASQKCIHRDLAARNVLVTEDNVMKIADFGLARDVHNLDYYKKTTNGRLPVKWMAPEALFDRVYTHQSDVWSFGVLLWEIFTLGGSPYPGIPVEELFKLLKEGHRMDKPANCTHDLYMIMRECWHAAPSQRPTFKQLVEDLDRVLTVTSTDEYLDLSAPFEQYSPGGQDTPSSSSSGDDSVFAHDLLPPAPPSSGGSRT
Structure (SMILES),remaining activity at 10 µM [1] [%],"remaining activity at 10 µM ([2]; read-out: % Enzyme Activity (relative to DMSO controls), ARAF) [%]",remaining activity at 10 µM [3] [%],remaining activity at 10 µM [4] [%],remaining activity at 10 µM [5] [%],remaining activity at 10 µM [6] [%],remaining activity at 10 µM [7] [%],remaining activity at 10 µM [8] [%],"remaining activity at 1 µM ([9]; compound 1 uM, read-out: % Enzyme Activity (relative to DMSO controls)) [%]","remaining activity at 10 µM [9, 10] [%]",% Enzyme Activity (relative to DMSO controls) [1] [%],% Enzyme Activity (relative to DMSO controls) ([2]; ARAF) [%],"remaining activity at 10 µM ([2]; ARAF, read-out: % Enzyme Activity (relative to DMSO controls)) [%]",% Enzyme Activity (relative to DMSO controls) [3] [%],% Enzyme Activity (relative to DMSO controls) [4] [%],% Enzyme Activity (relative to DMSO controls) [5] [%],% Enzyme Activity (relative to DMSO controls) [6] [%],% Enzyme Activity (relative to DMSO controls) [7] [%],% Enzyme Activity (relative to DMSO controls) [8] [%],% Enzyme Activity (relative to DMSO controls) ([9]; compound 10 uM) [%]
CC(C)c1cc(-c2n[nH]c(=O)n2-c2ccc3c(ccn3C)c2)c(O)cc1O [Ganetespib (STA9090)],85.8,158,62.6,87.6,–,–,–,–,–,–,–,–,–,–,–,–,–,–,–,–
CC(C)c1cc(-c2n[nH]c(=O)n2-c2ccc3c(ccn3C)c2)c(O)cc1O [Ganetespib],–,–,–,–,2.88,1.72,99.7,92.1,51.9,14.5,–,–,–,–,–,–,–,–,–,–
CCNC(=O)c1noc(-c2cc(C(C)C)c(O)cc2O)c1-c1ccc(CN2CCOCC2)cc1 [Luminespib (AUY-922)],96.7,–,97.2,99.7,–,–,–,–,–,–,96.28,107.23,107,96.41,98.43,–,–,–,–,–
CCNC(=O)c1noc(-c2cc(C(C)C)c(O)cc2O)c1-c1ccc(CN2CCOCC2)cc1 [Luminespib],–,–,–,–,25.7,5.53,104,103,–,107,–,–,–,–,–,24.59,5.21,103.61,102.58,105.89

# Source: paper PMC8550792, “Evolution of kinase polypharmacology across HSP90 drug discovery” (Cell Chemical Biology, 2021)
